Assay results taken from patent US11331299B2, “Medicinal use of serrulatane diterpenes” (The University of Sydney, priority 2016, dated 2022).
Read-outs that look alike come from different tables or passages of the source.

Tested on: 280 human cancer cell lines
Assay: OncoPanel cell proliferation assay (10-day)
Format: cell-based
Conditions: Homo sapiens; for IC50: read-out: Cell Count IC50; for EC50: read-out: Cell Count EC50; for GI50: read-out: Cell Count GI50
[1] = Caov-3, CaOV3, Female GU - Ovary
[2] = ChaGo-K-1, ChaGoK1, Lung - NSCLC
[3] = D341 Med, CNS - Medulloblastoma
[4] = Detroit 562, Detroit 562, Head and Neck
[5] = DoTc2-4510, DoTc2 4510, Lymphoma
[6] = G292, G-292, clone A141B1, Soft Tissue - Osteosarcoma
[7] = HEL 92.1.7, HEL-92-1-7, Leukemia
[8] = HOS, Soft Tissue - Osteosarcoma
[9] = HT-1080, HT-1080, Soft Tissue - Sarcoma
[10] = HUH-6-clone5, HUH-6 Clone 5, Liver
[11] = Hs 821.T, Soft Tissue - Sarcoma
[12] = Hs 888.Sk, Soft Tissue - Osteosarcoma

CC(C)=CCC[C@H](CO)[C@@H]1CC[C@@H](C)c2c1cc(C)c(O)c2O [Compound 1, 7,8,18-trihydroxyserrulat-14-ene]
IC50 (Calu-6, Calu6, Lung - NSCLC): 9240 nM | EC50 [1]: 1910 nM | GI50 [1]: 1850 nM | IC50 [1]: 1920 nM | EC50 (Capan-2, Capan-2, Pancreas): 1330 nM | GI50 (Capan-2, Capan-2, Pancreas): 1320 nM | IC50 (Capan-2, Capan-2, Pancreas): 1330 nM | EC50 [2]: 1530 nM | GI50 [2]: 1530 nM | IC50 [2]: 1540 nM | EC50 [3]: 9090 nM | GI50 [3]: 9370 nM | IC50 [3]: 9460 nM | EC50 (DB, Lymphoma): 2100 nM | GI50 (DB, Lymphoma): 2090 nM | IC50 (DB, Lymphoma): 2100 nM | EC50 (DBTRG-05MG, CNS - Glioma): 2650 nM | GI50 (DBTRG-05MG, CNS - Glioma): 2640 nM | IC50 (DBTRG-05MG, CNS - Glioma): 2660 nM | EC50 (DK-MG, CNS - Glioma): 6160 nM | GI50 (DK-MG, CNS - Glioma): 6120 nM | IC50 (DK-MG, CNS - Glioma): 6410 nM | EC50 (DLD-1, DLD-1, Colon): 2960 nM | GI50 (DLD-1, DLD-1, Colon): 2960 nM | IC50 (DLD-1, DLD-1, Colon): 2960 nM | EC50 (DMS-53, DMS53, Lung - SCLC): 810 nM | GI50 (DMS-53, DMS53, Lung - SCLC): 770 nM | IC50 (DMS-53, DMS53, Lung - SCLC): 810 nM | EC50 (DMS-114, DMS114, Lung - SCLC): 2770 nM | GI50 (DMS-114, DMS114, Lung - SCLC): 2570 nM | IC50 (DMS-114, DMS114, Lung - SCLC): 2770 nM | EC50 (DOHH-2, DOHH-2, Lymphoma): 1410 nM | GI50 (DOHH-2, DOHH-2, Lymphoma): 1410 nM | IC50 (DOHH-2, DOHH-2, Lymphoma): 1410 nM | EC50 (DU-145, DU145, Prostate): 2800 nM | GI50 (DU-145, DU145, Prostate): 2780 nM | IC50 (DU-145, DU145, Prostate): 2800 nM | EC50 (Daoy, CNS - Medulloblastoma): 1060 nM | GI50 (Daoy, CNS - Medulloblastoma): 1060 nM | IC50 (Daoy, CNS - Medulloblastoma): 1060 nM | EC50 (Daudi, Lymphoma): 1840 nM | GI50 (Daudi, Lymphoma): 1840 nM | IC50 (Daudi, Lymphoma): 1840 nM | EC50 [4]: 1960 nM | GI50 [4]: 1960 nM | IC50 [4]: 1970 nM | EC50 [5]: 1030 nM | GI50 [5]: 1010 nM | IC50 [5]: 1030 nM | EC50 (EB2, Lymphoma): 6470 nM | GI50 (EB2, Lymphoma): 6450 nM | IC50 (EB2, Lymphoma): 6490 nM | EC50 (EB-3, Lymphoma): 3560 nM | GI50 (EB-3, Lymphoma): 3560 nM | IC50 (EB-3, Lymphoma): 3560 nM | EC50 (EFM-19, EFM-19, Breast): 1610 nM | GI50 (EFM-19, EFM-19, Breast): 1540 nM | IC50 (EFM-19, EFM-19, Breast): 1610 nM | EC50 (EM-2, Leukemia): 2390 nM | GI50 (EM-2, Leukemia): 2370 nM | IC50 (EM-2, Leukemia): 2390 nM | EC50 (FaDu, Head and Neck): 870 nM | GI50 (FaDu, Head and Neck): 870 nM | IC50 (FaDu, Head and Neck): 870 nM | EC50 [6]: 4550 nM | GI50 [6]: 4410 nM | IC50 [6]: 4570 nM | EC50 (G-361, G-361, Skin (Melanoma)): 1790 nM | GI50 (G-361, G-361, Skin (Melanoma)): 1770 nM | IC50 (G-361, G-361, Skin (Melanoma)): 1790 nM | EC50 (G-401, G-401, Kidney): 4000 nM | GI50 (G-401, G-401, Kidney): 3990 nM | IC50 (G-401, G-401, Kidney): 4000 nM | EC50 (GA-10, GA-10, Lymphoma): 1930 nM | GI50 (GA-10, GA-10, Lymphoma): 1940 nM | IC50 (GA-10, GA-10, Lymphoma): 1940 nM | EC50 (H4, CNS - Glioma): 2770 nM | GI50 (H4, CNS - Glioma): 2770 nM | IC50 (H4, CNS - Glioma): 2770 nM | EC50 (HCT-15, HCT-15, Colon): 1840 nM | GI50 (HCT-15, HCT-15, Colon): 1830 nM | IC50 (HCT-15, HCT-15, Colon): 1840 nM | EC50 (HCT-116, HCT-116, Colon): 1750 nM | GI50 (HCT-116, HCT-116, Colon): 1750 nM | IC50 (HCT-116, HCT-116, Colon): 1750 nM | EC50 (HEC-1-A, Female GU - Uterus): 2570 nM | GI50 (HEC-1-A, Female GU - Uterus): 2560 nM | IC50 (HEC-1-A, Female GU - Uterus): 2570 nM | EC50 [7]: 13900 nM | GI50 [7]: 13900 nM | IC50 [7]: 13900 nM | EC50 (HLE, Liver): 4620 nM | GI50 (HLE, Liver): 4590 nM | IC50 (HLE, Liver): 4630 nM | EC50 (HLF, Liver): 4470 nM | GI50 (HLF, Liver): 4450 nM | IC50 (HLF, Liver): 4480 nM | EC50 (HMCB, Skin (Melanoma)): 1370 nM | GI50 (HMCB, Skin (Melanoma)): 1360 nM | IC50 (HMCB, Skin (Melanoma)): 1370 nM | EC50 [8]: 960 nM | GI50 [8]: 960 nM | IC50 [8]: 960 nM | EC50 (HPAF-II, Pancreas): 1380 nM | GI50 (HPAF-II, Pancreas): 1370 nM | IC50 (HPAF-II, Pancreas): 1380 nM | EC50 (HT1197, HT-1197, Bladder): 2310 nM | GI50 (HT1197, HT-1197, Bladder): 2280 nM | IC50 (HT1197, HT-1197, Bladder): 2340 nM | EC50 (HT, Lymphoma): 1520 nM | GI50 (HT, Lymphoma): 1510 nM | IC50 (HT, Lymphoma): 1530 nM | EC50 (HT-3, Female GU - Cervix): 3880 nM | GI50 (HT-3, Female GU - Cervix): 3840 nM | IC50 (HT-3, Female GU - Cervix): 3890 nM | EC50 (HT-29, HT-29, Colon): 4010 nM | GI50 (HT-29, HT-29, Colon): 4000 nM | IC50 (HT-29, HT-29, Colon): 4010 nM | EC50 [9]: 960 nM | GI50 [9]: 960 nM | IC50 [9]: 960 nM | EC50 (HT-1376, HT1376, Bladder): 1450 nM | GI50 (HT-1376, HT1376, Bladder): 1430 nM | IC50 (HT-1376, HT1376, Bladder): 1460 nM | EC50 [10]: 1520 nM | GI50 [10]: 1510 nM | IC50 [10]: 1520 nM | EC50 (HeLa, Female GU - Cervix): 2990 nM | GI50 (HeLa, Female GU - Cervix): 2980 nM | IC50 (HeLa, Female GU - Cervix): 2990 nM | EC50 (HepG2, HepG2, Liver): 820 nM | GI50 (HepG2, HepG2, Liver): 810 nM | IC50 (HepG2, HepG2, Liver): 820 nM | EC50 (Hs 229.T, Lung - NSCLC): 2880 nM | GI50 (Hs 229.T, Lung - NSCLC): 2890 nM | IC50 (Hs 229.T, Lung - NSCLC): 2940 nM | EC50 (Hs 294T, Skin (Melanoma)): 2640 nM | GI50 (Hs 294T, Skin (Melanoma)): 2590 nM | IC50 (Hs 294T, Skin (Melanoma)): 2640 nM | EC50 (Hs 445, Hs 445, Lymphoma): 1300 nM | GI50 (Hs 445, Hs 445, Lymphoma): 1310 nM | IC50 (Hs 445, Hs 445, Lymphoma): 1320 nM | EC50 (Hs 611.T, Lymphoma): 2920 nM | GI50 (Hs 611.T, Lymphoma): 2910 nM | IC50 (Hs 611.T, Lymphoma): 2940 nM | EC50 (Hs 683, Hs 683, CNS - Glioma): 4900 nM | GI50 (Hs 683, Hs 683, CNS - Glioma): 4760 nM | IC50 (Hs 683, Hs 683, CNS - Glioma): 4910 nM | EC50 (Hs 688(A).T, Skin (Melanoma)): 1330 nM | GI50 (Hs 688(A).T, Skin (Melanoma)): 1270 nM | IC50 (Hs 688(A).T, Skin (Melanoma)): 1440 nM | EC50 (Hs746T, HS 746T, Stomach): 5580 nM | GI50 (Hs746T, HS 746T, Stomach): 4640 nM | IC50 (Hs746T, HS 746T, Stomach): 5740 nM | EC50 (Hs766T, Hs 766T, Pancreas): 1610 nM | GI50 (Hs766T, Hs 766T, Pancreas): 1540 nM | IC50 (Hs766T, Hs 766T, Pancreas): 1610 nM | EC50 [11]: 4220 nM | GI50 [11]: 1800 nM | IC50 [11]: 4220 nM | EC50 [12]: 2200 nM | GI50 [12]: 2050 nM | IC50 [12]: 2380 nM | EC50 (Hs 934.T, Skin (Melanoma)): 2530 nM | GI50 (Hs 934.T, Skin (Melanoma)): 2340 nM | IC50 (Hs 934.T, Skin (Melanoma)): 3270 nM | EC50 (Hs 936.T(C1), Skin (Melanoma)): 2000 nM | GI50 (Hs 936.T(C1), Skin (Melanoma)): 1970 nM | IC50 (Hs 936.T(C1), Skin (Melanoma)): 2000 nM | EC50 (Hs-578T, Hs 578T, Breast): 4740 nM | GI50 (Hs-578T, Hs 578T, Breast): 4680 nM | IC50 (Hs-578T, Hs 578T, Breast): 4760 nM | EC50 (HuCCT-1, HuCCT1, Liver): 2480 nM | GI50 (HuCCT-1, HuCCT1, Liver): 2480 nM | IC50 (HuCCT-1, HuCCT1, Liver): 2480 nM | EC50 (HuP-T4, HuP-T4, Pancreas): 4520 nM | GI50 (HuP-T4, HuP-T4, Pancreas): 4530 nM | IC50 (HuP-T4, HuP-T4, Pancreas): 4540 nM | EC50 (J82, Bladder): 1060 nM | GI50 (J82, Bladder): 1050 nM | IC50 (J82, Bladder): 1060 nM | EC50 (JAR, Placenta): 12200 nM | GI50 (JAR, Placenta): 12200 nM | IC50 (JAR, Placenta): 12200 nM | EC50 (JEG-3, JEG-3, Placenta): 4330 nM | GI50 (JEG-3, JEG-3, Placenta): 4320 nM | IC50 (JEG-3, JEG-3, Placenta): 4330 nM | EC50 (JIYOYE, Lymphoma): 5880 nM | GI50 (JIYOYE, Lymphoma): 5870 nM | IC50 (JIYOYE, Lymphoma): 5880 nM | EC50 (JeKo-1, JeKo-1, Lymphoma): 5230 nM | GI50 (JeKo-1, JeKo-1, Lymphoma): 5210 nM | IC50 (JeKo-1, JeKo-1, Lymphoma): 5230 nM | EC50 (Jurkat, Leukemia): 2250 nM | GI50 (Jurkat, Leukemia): 2240 nM | IC50 (Jurkat, Leukemia): 2250 nM | EC50 (K562, K562, Leukemia): 4600 nM | GI50 (K562, K562, Leukemia): 4580 nM | IC50 (K562, K562, Leukemia): 4600 nM | EC50 (KATO III, Stomach): 3280 nM | GI50 (KATO III, Stomach): 3270 nM | IC50 (KATO III, Stomach): 3280 nM | EC50 (KHOS-240S, Soft Tissue - Osteosarcoma): 950 nM
